Assay results published in ChEMBL document CHEMBL3217476, “Binding region and interaction properties of sulfoquinovosylacylglycerol (SQAG) with human vascular endothelial growth factor 165 revealed by biosensor-based assays” (Medchemcomm, 2011).
One block for each molecule: values may come before it. The source made the active and inactive calls. The calls are words filed in the database; no cut-off is given here.

How the values were obtained:
[1] = biological target: T1, Vascular endothelial growth factor A, long form (Homo sapiens, UniProt P15692); experiment: Binding affinity to His-tagged human recombinant full length VEGF165 (amino acid residues A1 to R165) expressed in Escherichia coli BL21 (DE3) cells by surface plasmon resonance assay
T1 sequence (P15692 whole entry): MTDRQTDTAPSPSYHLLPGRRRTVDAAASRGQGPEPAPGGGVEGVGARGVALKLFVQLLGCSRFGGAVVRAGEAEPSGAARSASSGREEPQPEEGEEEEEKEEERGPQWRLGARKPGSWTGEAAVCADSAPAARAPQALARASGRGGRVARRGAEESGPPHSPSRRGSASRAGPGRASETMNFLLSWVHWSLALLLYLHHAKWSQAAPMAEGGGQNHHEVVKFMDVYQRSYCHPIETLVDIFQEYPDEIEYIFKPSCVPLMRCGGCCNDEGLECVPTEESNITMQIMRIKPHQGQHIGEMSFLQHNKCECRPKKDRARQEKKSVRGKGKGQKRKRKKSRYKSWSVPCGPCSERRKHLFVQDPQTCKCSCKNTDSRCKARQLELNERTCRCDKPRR

[2] = tested on: Vascular endothelial growth factor A, long form (Homo sapiens), P15692 [UNDEFINED MUTATION]; experiment: Binding affinity to His-tagged human recombinant truncated del1 VEGF165 (amino acid residues A1 to R110) expressed in Escherichia coli BL21 (DE3) cells at 0.125 to 2 uM by surface plasmon resonance assay
[3] = biological target: Vascular endothelial growth factor A, long form (Homo sapiens, UniProt P15692, EX2DEL); experiment: Binding affinity to His-tagged human recombinant truncated del2 VEGF165 (amino acid residues A111 to R165) expressed in Escherichia coli BL21 (DE3) cells by surface plasmon resonance assay
[4] = tested on: Vascular endothelial growth factor A, long form (Homo sapiens), P15692 [UNDEFINED MUTATION]; experiment: Binding affinity to His-tagged human recombinant truncated del3 VEGF165 (amino acid residues A111 to T142) expressed in Escherichia coli BL21 (DE3) cells at 0.125 to 2 uM by surface plasmon resonance assay
[5] = biological target: Vascular endothelial growth factor A, long form (Homo sapiens, UniProt P15692, EX4DEL); experiment: Binding affinity to His-tagged human recombinant truncated del4 VEGF165 (amino acid residues C137 to R165) expressed in Escherichia coli BL21 (DE3) cells by surface plasmon resonance assay
[6] = biological target: T2, Vascular endothelial growth factor A, long form (Homo sapiens) (UniProt P15692); experiment: Inhibition of human VEGF165 heparin binding domain (amino acid residues A111 to R165) expressed in T7 phage/NRP1 interaction assessed as rescued phage titer ratio of del2 T7 phage particles at 1 uM preincubated with del2 T7 phage particles by QCM sensorgram analysis
T2 sequence (whole entry): T1 sequence (P15692 whole entry)

[7] = biological target: T2, Vascular endothelial growth factor A, long form (Homo sapiens); experiment: Binding affinity to human VEGF121 (amino acid residues A1 to R121) at 0.125 to 2 uM by surface plasmon resonance assay
[8] = biological target: Vascular endothelial growth factor receptor 1 (Homo sapiens) (UniProt P17948); experiment: Binding affinity to human VEGFR1 (amino acid residues S27 to I328) at 0.125 to 2 uM by surface plasmon resonance assay
[9] = biological target: Vascular endothelial growth factor receptor 2 (Homo sapiens) (UniProt P35968); experiment: Binding affinity to human VEGFR2 (amino acid residues A20 to E764) at 0.125 to 2 uM by surface plasmon resonance assay
[10] = biological target: Neuropilin-1 (Homo sapiens) (UniProt O14786); experiment: Binding affinity to human NRP1 (amino acid residues M1 to K644) at 0.125 to 2 uM by surface plasmon resonance assay
[11] = biological target: Transforming growth factor beta-2 proprotein (Homo sapiens) (UniProt P61812); experiment: Binding affinity to human TGFbeta2 (amino acid residues A1 to S112) at 0.125 to 2 uM by surface plasmon resonance assay
[12] = biological target: TGF-beta receptor type-2 (Homo sapiens) (UniProt P37173); experiment: Binding affinity to human TGFbetaR2 (amino acid residues M1 to D159) at 0.125 to 2 uM by surface plasmon resonance assay
[13] = biological target: Insulin-like growth factor 1 (Homo sapiens) (UniProt P05019); experiment: Binding affinity to human IGF-1 (amino acid residues G49 to A118) at 0.125 to 2 uM by surface plasmon resonance assay
[14] = biological target: Insulin-like growth factor 1 receptor (Homo sapiens) (UniProt P08069); experiment: Binding affinity to human IGF-1 receptor (amino acid residues E31 to N932) at 0.125 to 2 uM by surface plasmon resonance assay
[15] = biological target: Fibroblast growth factor 1 (Homo sapiens) (UniProt P05230); experiment: Binding affinity to human FGF1 (amino acid residues M1 to D141) at 0.125 to 2 uM by surface plasmon resonance assay
[16] = biological target: Fibroblast growth factor 2 (Homo sapiens) (UniProt P09038); experiment: Binding affinity to human FGF2 (amino acid residues A1 to S154) at 0.125 to 2 uM by surface plasmon resonance assay
Homo sapiens [17] = species on record: Homo sapiens; experiment: Binding affinity to human FGFR2 alpha (amino acid residues R22 to E378) at 0.125 to 2 uM by surface plasmon resonance assay
[18] = biological target: Angiopoietin-1 (Homo sapiens) (UniProt Q15389); experiment: Binding affinity to human Ang-1 (amino acid residues N21 to F496) at 0.125 to 2 uM by surface plasmon resonance assay
[19] = biological target: Angiopoietin-1 receptor (Homo sapiens) (UniProt Q02763); experiment: Binding affinity to human Tie-2 (amino acid residues A23 to K745) at 0.125 to 2 uM by surface plasmon resonance assay
[20] = biological target: Ephrin type-B receptor 2 (Homo sapiens) (UniProt P29323); experiment: Binding affinity to human EphB2 (amino acid residues V27 to K458) at 0.125 to 2 uM by surface plasmon resonance assay
[21] = biological target: Ephrin type-B receptor 4 (Homo sapiens) (UniProt P54760); experiment: Binding affinity to human EphB4 (amino acid residues L16 to A539) at 0.125 to 2 uM by surface plasmon resonance assay
[22] = biological target: Pro-epidermal growth factor (Homo sapiens) (UniProt P01133); experiment: Binding affinity to human EGF (amino acid residues N1 to R53) at 0.125 to 2 uM by surface plasmon resonance assay
[23] = biological target: Epidermal growth factor receptor (Homo sapiens) (UniProt P00533); experiment: Binding affinity to human EGFR (amino acid residues L25 to S645) at 0.125 to 2 uM by surface plasmon resonance assay
Homo sapiens [24] = species on record: Homo sapiens; experiment: Binding affinity to human PDGF-BB (amino acid residues S1 to T110) at 0.125 to 2 uM by surface plasmon resonance assay
[25] = biological target: Platelet-derived growth factor receptor beta (Mus musculus) (UniProt P05622); experiment: Binding affinity to GST-fused mouse PDGFRB (amino acid residues L33 to E133) at 0.125 to 2 uM by surface plasmon resonance assay
[26] = biological target: Bone morphogenetic protein 2 (Homo sapiens) (UniProt P12643); experiment: Binding affinity to human BMP-2 (amino acid residues M1 to R115) at 0.125 to 2 uM by surface plasmon resonance assay
[27] = biological target: Bone morphogenetic protein receptor type-2 (Homo sapiens) (UniProt Q13873); experiment: Binding affinity to human BMPR2 (amino acid residues A26 to I151) at 0.125 to 2 uM by surface plasmon resonance assay
Homo sapiens [28] = species on record: Homo sapiens; experiment: Binding affinity to human sDLL-4 (amino acid residues S1 to P498) at 0.125 to 2 uM by surface plasmon resonance assay
[29] = biological target: Protein jagged-1 (Homo sapiens) (UniProt P78504); experiment: Binding affinity to human Jagged-1 (amino acid residues S32 to S1046) at 0.125 to 2 uM by surface plasmon resonance assay
[30] = biological target: Neurogenic locus notch homolog protein 1 (Homo sapiens) (UniProt P46531); experiment: Binding affinity to human Notch-1 (amino acid residues A19 to Q526) at 0.125 to 2 uM by surface plasmon resonance assay
[31] = biological target: T2, Vascular endothelial growth factor A, long form (Homo sapiens); experiment: Binding affinity to human VEGF165 heparin binding domain (amino acid residues A111 to R165) expressed in T7 phage assessed as increase in emergence ratio of del2 T7 phage particles from host Escherichia coli BLT5615 cells by QCM sensorgram analysis; type: cell-based
[32] = biological target: T2, Vascular endothelial growth factor A, long form (Homo sapiens); experiment: Binding affinity to human VEGF165 C-terminal fragment of heparin binding domain (amino acid residues C137 to R165) expressed in T7 phage assessed as increase in emergence ratio of del4 T7 phage particles from host Escherichia coli BLT5615 cells by QCM sensorgram analysis; type: cell-based
[33] = biological target: DNA polymerase lambda (Homo sapiens) (UniProt Q9UGP5); experiment: Binding affinity to human DNA polymerase lambda (amino acid residues M1 to R95) by surface plasmon resonance assay
[34] = biological target: T2, Vascular endothelial growth factor A, long form (Homo sapiens); experiment: Inhibition of human VEGF165 heparin binding domain (amino acid residues A111 to R165) expressed in T7 phage/NRP1 interaction assessed as rescued phage titer ratio of del2 T7 phage particles at 10 uM preincubated with del2 T7 phage particles by QCM sensorgram analysis
[35] = biological target: T2, Vascular endothelial growth factor A, long form (Homo sapiens); experiment: Binding affinity to His-tagged human recombinant full length VEGF165 (amino acid residues A1 to R165) expressed in Escherichia coli BL21 (DE3) cells at 1.25 to 20 uM by surface plasmon resonance assay
[36] = biological target: T2, Vascular endothelial growth factor A, long form (Homo sapiens); experiment: Binding affinity to His-tagged human recombinant full length VEGF165 (amino acid residues A1 to R165) expressed in Escherichia coli BL21 (DE3) cells at 0.125 to 2 uM by surface plasmon resonance assay

Structure (SMILES): CCCCCCCCCCCCCCCCCC(=O)OCC(O)CO[C@@H]1O[C@H](CS(=O)(=O)O)[C@@H](O)[C@H](O)[C@H]1O (stereo not given in full)
Kd [1]: 16000 nM

Structure (SMILES): CCCCCCCCCCCCCCCCCC(=O)OCC(O)CO[C@H]1O[C@H](CS(=O)(=O)O)[C@@H](O)[C@H](O)[C@H]1O (stereo not given in full)
inhibition [34]: Active
Kd [1]: 18000 nM

Structure (SMILES): CCCCCCCCCC(=O)OCC(O)CO[C@H]1O[C@H](CS(=O)(=O)O)[C@@H](O)[C@H](O)[C@H]1O (stereo not given in full)
Activity [35]: inactive

Structure (SMILES): O=S(=O)(O)C[C@H]1O[C@@H](OCC(O)CO)[C@H](O)[C@@H](O)[C@@H]1O (stereo not given in full)
Activity [36]: inactive

Second part, the molecule after the results:

Kd [1]: 0.025 nM
Structure (SMILES): CCCCCCCCCCCCCCCCCC(=O)OCC(CO[C@H]1O[C@H](CS(=O)(=O)O)[C@@H](O)[C@H](O)[C@H]1O)OC(=O)CCCCCCCCCCCCCCCCC (stereo not given in full)

Activity [2]: inactive
Kd [3]: 0.025 nM
Activity [4]: inactive
Kd [5]: 1400 nM
inhibition [6]: Active
Kd [1]: 0.046 nM
Activity [7]: inactive
Activity [8]: inactive
Activity [9]: inactive
Activity [10]: inactive
Activity [11]: inactive
Activity [12]: inactive
Activity [13]: inactive
Activity [14]: inactive
Activity [15]: inactive
Activity [16]: inactive
Activity (Homo sapiens [17]): inactive
Activity [18]: inactive
Activity [19]: inactive
Activity [20]: inactive
Activity [21]: inactive
Activity [22]: inactive
Activity [23]: inactive
Activity (Homo sapiens [24]): inactive
Activity [25]: inactive
Activity [26]: inactive
Activity [27]: inactive
Activity (Homo sapiens [28]): inactive
Activity [29]: inactive
Activity [30]: inactive
Activity [31]: Active
Activity [32]: Active
Kd [33]: 9.9 nM
Structure (SMILES): CCCCCCCCCCCCCCCCCC(=O)OCC(CO[C@@H]1O[C@H](CS(=O)(=O)O)[C@@H](O)[C@H](O)[C@H]1O)OC(=O)CCCCCCCCCCCCCCCCC (stereo not given in full)

Activity [36]: inactive
Structure (SMILES): CCCCCCCCCCCCCCCCCC(=O)OCC(CO[C@@H]1O[C@H](CO)[C@@H](O)[C@H](O)[C@H]1O)OC(=O)CCCCCCCCCCCCCCCCC (stereo not given in full)
